{"source": "patent US20240226104A1", "about": "“PI3K INHIBITORS, NANOFORMULATIONS, AND USES THEREOF” (THE REGENTS OF THE UNIVERSITY OF MICHIGAN, priority 2021, published 2024)", "data": [{"test_system": "3D multicellular tumor spheroids (4T1 cells and M2 macrophages derived from RAW264.7 cells)", "assay": "3D multicellular tumor spheroids (MCTs) growth", "type": "cell-based", "details": "single drug 5 μM; combination 2.5 μM plus 2.5 μM; 14 days", "protocol": "3D multicellular tumor spheroids (MICs), 4T1 cells and M2 macrophages derived from RAW264.7 cells were mixed in the ratio of 7:3 and then seeded into an ultralow-attachment 96 well plate (Corning) at a density of 5,000 cells/well and cultured for 30 h to form the tumor spheroids. These tumor spheroids were separately incubated with 300 μL complete medium supplemented with PTX ([…]), gemcitabine (5 μM), doxorubicin (5 μM), and IPI-549 (5 μM) as well as the combination of IPI-549 and PTX (2.5 μM+[…]), IPI-549 and gemcitabine (2.5 μM+2.5 μM), and IPI-549 and doxorubicin (2.5 μM+2.5 μM) for 14 days. The volumes ([major axis]×[minor axis]^2/2) of the MTCs were monitored every other day using an Olympus IX83 motorized inverted microscope with cellSens Dimension software (Olympus), and images were captured using a CellInsight CX5 High-Content Screening (HCS) Platform (Thermo Fisher) at 4× magnification.", "values": [{"smiles": "C[C@H](NC(=O)c1c(N)nn2cccnc12)c1cc2cccc(C#Cc3cnn(C)c3)c2c(=O)n1-c1ccccc1", "note": "[IPI-549]", "inhibition of 3D MCTs growth": "limited inhibition of 3D MCTs growth"}, {"smiles": "CC(=O)O[C@H]1C(=O)[C@@]2(C)[C@H]([C@H](OC(=O)c3ccccc3)[C@]3(O)C[C@H](OC(=O)[C@H](O)[C@@H](NC(=O)c4ccccc4)c4ccccc4)C(C)=C1C3(C)C)[C@]1(OC(C)=O)CO[C@@H]1C[C@@H]2O", "note": "[PTX, paclitaxel]", "inhibition of 3D MCTs growth": "limited inhibition of 3D MCTs growth"}, {"smiles": "COc1cccc2c1C(=O)c1c(O)c3c(c(O)c1C2=O)C[C@@](O)(C(=O)CO)C[C@@H]3O[C@H]1C[C@H](N)[C@H](O)[C@H](C)O1", "note": "[doxorubicin]", "inhibition of 3D MCTs growth": "limited inhibition of 3D MCTs growth"}, {"smiles": "Nc1ccn([C@@H]2O[C@H](CO)[C@@H](O)C2(F)F)c(=O)n1", "note": "[gemcitabine]", "inhibition of 3D MCTs growth": "limited inhibition of 3D MCTs growth"}]}]}
